These results are taken from patent publication EP0926242A1, “GLIOTOXIN DERIVATIVES AND ANTICANCER AGENT COMPRISING THE SAME” (priority 1996, dated 1998).

The nature of series [1]: Body weight in the COLON-26 evaluation in vivo (Example 1). Also on record: species or system CDFI mice. The settings on record: day 21, COLON-26 mice, control 24.7 g. The procedure:
CDFI mice (female: 4 weeks old) were bought, and colon-26 subcultured in vivo in the subcutaneous tissue was taken out. The colon-26 was minced in a Petridish, and transplanted into the sulcutaneous tissue of CDFI mice in an amount of 10 mg/mouse by a trucker. The transplanted day was assigned day 0, and the size of the tumor and body weight were measured on day 7 and divided into groups by n=4. The size of tumor was calculated as tumor weight by the following formula. (Tumor Weight (mg) = Tumor Volume (mm)^3 =1/2 × Major Axis (mm) × Minor Axis (mm))^2 [formula]
Administration was carried out from day 7 according to the following schedule. Dose was 0.2 mL/mouse, and injected into abdominal cavity. Acetylgliotoxin was dissolved in dimethyl sulfoxide (DMSO) in a concentration of 100 mg/mL, and adjusted to an object concentration (0.5 mg/kg, 1 mg/kg, 10 mg/kg, 20 mg/kg) by 5% Tween 80 (saline solution). In the evaluation of […], 1 mg/kg, injection was carried out every day for 5 days, in the case of 10 mg/kg, injected twice on day 7 and day 8, and in the case of 20 mg/kg, injected once on day 7.

The nature of series [2]: Body weight in the HCT-116 evaluation in vivo (Example 1). Set-up: species or system Balb/c nu/nu mice. The settings on record: day 21, HCT-116 mice, control 17.5 g. The procedure:
Balb/c nu/nu mice (female: 5 weeks old) were bought, and HCT- 116 subcultured in vivo in the subcutaneous tissue was taken out. The HCT-116 was minced in a Petridish, and transplanted into the sulcutaneous tissue of […] mice in an amount of 30 mg/mouse by a trucker. The transplanted day was assigned day 0, and the size of the tumor and body weight were measured on day 7 and divided into groups by n=2.
Acetylgliotoxin was dissolved in dimethyl sulfoxide (DMSO) in a concentration of 100 mg/mL, and adjusted to an object concentration (0.5 mg/kg, 1 mg/kg, 10 mg/kg, 20 mg/kg) by 5 % Tween 80 (saline solution). In the evaluation of 0.5, 1 mg/kg, injection was carried out every day for 5 days, in the case of 10 mg/kg, injected twice on day 7 and day8, and in the case of 20 mg/kg, injected once on day 7.

On to `CC(=O)OC1C=CC=C2CC34SSC(CO)(C(=O)N3C21)N(C)C4=O` (centres unmarked) [acetylgliotoxin], for which the “weight” value is 24.7 g in series [1] (0.5 mg/kg×5 i.p.(d7-11)); 24.9 g in series [1] (1 mg/kg×5 i.p.(d7-11)); 24.1 g in series [1] (10 mg/kg×2 i.p.(d7, 8)); 25.2 g in series [1] (20 mg/kg×1 i.p.(d7)); 17.1 g in series [2] (0.5 mg/kg×5 i.p.(d7-11)); 17.8 g in series [2] (1 mg/kg×5 i.p.(d7-11)). The “weight” value was 15.8 g in series [2] (10 mg/kg×2 i.p.(d7, 8)) and 15.9 g in series [2] (20 mg/kg×1 i.p. (d7)).
